Reference: EP3650451A1, “COMPOUNDS AND THEIR USES AS FLUORESCENT PROBES” (Consejo Superior de Investigaciones Cientificas, priority 2017, dated 2019)

How the values were obtained:
[1] = test system: SCC38 cells; test: Stereospecificity of the mitochondrial labeling, flow cytometry; type: cell-based, human; settings: all the selected concentrations, 30 min incubation
Protocol: • Fig. 1. In vivo labeling of SCC38 cells with compound 4 at different concentrations (50, 100 and 500 nM). Scale bar: 10 µm • Fig. 2. Flow cytometry studies in SCC38 and HeLa cell lines labeled with compound 4 and Mito Tracker® Red. Histograms wherein fluorescence intensity vs number of events is represented for each of the staining times (5, 15 and 30 min) and control (Ctrl), for the SCC38 and HeLa cells and for each of the two markers. • Fig. 3. Absorption (A) and fluorescence (B) spectra, normalized to molar absorption and fluorescence quantum yield of probe 4 in different solvents; chloroform (green), acetone (black), acetonitrile (red), ethanol (blue) and water (gray). • Fig. 4. […] (A) Flow cytometry analysis of SCC38 cells incubated in the presence (+FCCP) or absence (-FCCP) of FCCP 60 µM for 3 h before staining with 20 nM of 4 or 0.5 nm of MitoTracker. The data represent the mean fluorescence intensity (MFI) of the stained cells. […] The graphs show the fluorescence profiles of the regions of interest indicated with white lines in the right-hand panels. […] The data represent the mean fluorescence intensity (MFI) of the stained cells (upper panels) and representative images of the cytometry profiles (lower panels). • Fig. 7. […] (B) The data represent the mean fluorescence intensity (MFI) of the labeled cells. […]

[2] = Stability in water: time evolution in D2O followed by 1H NMR (hydrolysis); type: physicochemical; settings: 15 mM solution in D2O at 25 °C, read-out: t1/2 (hydrolysis) (converted)
Protocol: One of the critical factors that conditions the viability and applicability of functional dyes 3 and 4 as fluorescent mitochondrial probes is their stability in water, since these compounds contain two potentially labile B-O bonds linking the fluorophore with the carnitine substituent. This stability was determined analyzing the time evolution of 3 and 4 in a 15 mM solution in D2O at 25 °C using ^1H NMR. This technique makes it possible not only to define their stability, but also to identify the possible degradation products (Diagram 2). Both probes are hydrolyzed, generating free carnitine and the corresponding 4,4-dihydroxy-BODIPY derivatives 5 and 6. [drawing 8]
Compound 3 is quickly hydrolyzed (t1/2 = 10 min); however, the greater substitution of the tetramethylated derivative in 4 gives it greater stability (t1/2 = 6 h), which promotes its use as a fluorescent marker in live cells. Contrary to what might be believed, the generation of free carnitine and of the corresponding BODIPY derivatives 5 and 6 at physiological pH is, indeed, an advantage for its application in cell labels. Thus, (R)-carnitine is incorporated into the mitochondrial metabolism, while the boron of the hydrolyzed BODIPY can covalently bond to poly-hydroxilated molecules (for example, saccharides and glycoproteins), generating cyclic boronic esters. […]

[3] = Photophysical characterization: absorption and fluorescence spectra; type: physicochemical
Protocol: The photophysical characterization of probes 3 and 4 was carried out analyzing the corresponding absorption and fluorescence spectra in the UV-visible region of the spectrum.
Its photophysical behavior is dependent on the degree of substitution of the BODIPY, since the alkylation of the chromatophore induces sufficient steric hindrance to reduce the free rotation of the 8-mesityl group, a process that entails a significant reduction in fluorescence efficiency. Thus, probe 4 in water stands out for having a high molar absorption coefficient (3.8 × 10^4 M^-1 cm^-1 at 499 nm) and a very efficient fluorescence emission at 511 nm, with a quantum yield of up to 80%.

[4] = test system: SCC38 cells; test: Co-localization by co-staining with MitoTracker Red, fluorescence microscopy of live cells; type: cell-based, human; settings: co-staining, compound 4 50 nM, MitoTracker® Red 25 nM, 30 minutes
Protocol: (§1) The cell assays were carried out on two human cell lines: SCC38 and HeLa. The SCC38 line is derived from human laryngeal epidermoid carcinoma patients, while HeLa, the first human cell line established in culture, is derived from cervical cancer. The culture medium used for both cell lines was DMEM (Dulbecco's Modified Eagle's Medium) supplemented with 10% of fetal bovine serum (FBS), 100 U/mL of penicillin, 200 µg/mL of streptomycin, 100 µmol/L of non-essential amino acids and 2 mmol/L of glutamine. The cultures were incubated at 37 °C and 5% of CO2.
These cell lines were stained with the fluorescent probes synthesized following the following protocol: 30,000-50,000 SCC38 cells were plated on 24-well glass-bottomed plates and cultured to 70% confluence. The culture medium was then removed from the well and washed at least three times with DMEM medium without additives. Next, 1 mL of DMEM and the corresponding fluorescent compound was added to the well. The cells were incubated at 37 °C for 30 minutes, after which the medium was removed and newly washed with DMEM. Lastly, complete medium was added and the cells were observed under the microscope. Microscopy analysis was performed using a Zeiss Axio Observer Z1 microscope with AxioCam MRM and ApoTome 2 (Carl Zeiss, Germany) with different 40X 63X oil immersion objectives. The cells were also stained with MitoTracker® Red CMXRos (Thermo Fisher), following the manufacturer's instructions, with the aim of carrying out comparative studies with the new fluorescent markers synthesized herein. Initially, both compounds 3 and 4 were used at a concentration of 50 nM, and staining time was also 30 minutes.
In order to confirm the specificity of the mitochondrial labeling, co-localization studies were carried out by co-staining with the commercial mitochondrial marker MitoTracker® Red in the cell line. Compound 4 was used at a concentration of 50 nM and MitoTracker® Red at 25 nM. Both compounds were added simultaneously and incubated for 30 minutes.

[5] = test system: HeLa; test: Kinetics of cell labeling by flow cytometry; type: cell-based, human; settings: 50 nM, staining times 5, 15 and 30 min
Protocol: as §1
(§2) The kinetics of cell labeling with 4 was studied by flow cytometry with the SCC38 and HeLa cell lines, using MitoTracker® Red as a control marker, both at a concentration of 50 nM. The staining times studied were 5, 15, 30 and 45 minutes. After staining, the medium was removed, washed with PBS, trypsinized and the pellet was resuspended in 500 µL of PBS and introduced in the cytometer after filtration. A Beckman Coulter Cytomics FC500 Flow Cytometry Analyzer was used (Scientific-Technical Services, Universidad de Oviedo). Part of the resuspended cells were also plated and observed under the microscope.

[6] = test system: SCC38; test: Kinetics of cell labeling by flow cytometry; type: cell-based, human; settings: SCC38, 50 nM, staining times 5, 15 and 30 min
Protocol: as §1, §2

[7] = test system: SCC38 cells; test: Labeling in the presence of FCCP (depolarized mitochondrial membrane), flow cytometry; type: cell-based, human; settings: 60 µM FCCP for 3 h at 37 °C before staining; 20 nM of 4 or 0.5 nM of MitoTracker
Protocol: • Fig. 1. In vivo labeling of SCC38 cells with compound 4 at different concentrations (50, 100 and 500 nM). Scale bar: 10 µm • Fig. 2. Flow cytometry studies in SCC38 and HeLa cell lines labeled with compound 4 and Mito Tracker® Red. Histograms wherein fluorescence intensity vs number of events is represented for each of the staining times (5, 15 and 30 min) and control (Ctrl), for the SCC38 and HeLa cells and for each of the two markers. • Fig. 3. Absorption (A) and fluorescence (B) spectra, normalized to molar absorption and fluorescence quantum yield of probe 4 in different solvents; chloroform (green), acetone (black), acetonitrile (red), ethanol (blue) and water (gray). • Fig. 4. […] (A) Flow cytometry analysis of SCC38 cells incubated in the presence (+FCCP) or absence (-FCCP) of FCCP 60 µM for 3 h before staining with 20 nM of 4 or 0.5 nm of MitoTracker. The data represent the mean fluorescence intensity (MFI) of the stained cells. (B) Microscopy analysis of SCC38 cells pretreated or not with FCCP before co-staining with 20 nM of 4 and 0.5 nm of MitoTracker. The graphs show the fluorescence profiles of the regions of interest indicated with white lines in the right-hand panels. Scale bars: 10 µm). • Fig. 5. […] The data represent the mean fluorescence intensity (MFI) of the stained cells (upper panels) and representative images of the cytometry profiles (lower panels). • Fig. 7. […] (B) The data represent the mean fluorescence intensity (MFI) of the labeled cells.
The labeling was analyzed by flow cytometry in the presence of carbonyl cyanide-p-(trifluoromethoxy)phenylhydrazone (FCCP), a protonophore used to reduce the mitochondrial membrane potential (ΔΨm) through depolarization of the mitochondrial membrane. […] Indeed, the suppression of dye-mitochondria electrostatic attraction as a passive labeling mechanism reduces the concentration of the dye in the cell organelle and, thus, the probability and extent of the fluorescence deactivation processes, with the ensuing increase in their efficiency. […]

[8] = test system: SCC38 cells; test: Inhibition of mitochondrial staining by (R)-palmitoylcarnitine (CACT substrate), flow cytometry; type: cell-based, human; settings: co-incubation, probe 50 nm, (R)-palmitoylcarnitine 100, 250 and 500 nM
Protocol: The SCC38 cells were co-incubated with the indicated concentrations of (R)-palmitoylcarnitine and 50 nM of 4 (A) or 50 nM of MitoTracker (B) before analyzing by flow cytometry. The data represent the mean fluorescence intensity (MFI) of the stained cells (upper panels) and representative images of the cytometry profiles (lower panels). • Fig. 7.
To test if CACT was in fact involved in the channeling of 4 to the mitochondrial matrix, we firstly studied the effect of (R)-(+)-palmitoylcarnitine, a natural CACT substrate, in cell labeling by 4.

CC1=CC(C)=[N+]2C1=C(c1c(C)cc(C)cc1C)c1c(C)cc(C)n1[B-]21OC(=O)C[C@@H](C[N+](C)(C)C)O1 (stereo partly drawn) [(S)-4]
fluorescence intensity compared with 4 [1]: considerably lower

Cc1cc(C)c(C2=C3C=CC=[N+]3[B-]3(OC(=O)C[C@H](C[N+](C)(C)C)O3)n3cccc32)c(C)c1 (stereo partly shown) [Compound 3]
half-life at 15000 µM [2]: 10 min
kfl: Radiative decay constant ([3]; Water): 0.66 10^8s^- 1
knr: Non-Radiative decay constant ([3]; Water): 1.00 10^8s^- 1
Δv: Stokes shift ([3]; Water): 542 cm⁻¹
εmax: Molar extinction coefficient at the absorption peak ([3]; Water): 4.1 × 10^4 (M^-1 cm^- 1)
λab: Absorption peak wavelength ([3]; Water): 501 nm
τ: Fluorescence lifetime ([3]; Water): 6.00 ns
λfl: Fluorescence peak wavelength ([3]; Water, excitation at 490 nm): 515 nm
φf: Quantum yield ([3]; Water, reference PM567 in ethanol): 0.40
tendency towards H- or J- type aggregation ([3]; concentrations as high as 10^-4 M): not exhibit any tendency towards H- or J- type aggregation

ClCc1ccc(C2=c3cc4c5c(c3Oc3c2cc2c6c3CCCN6CCC2)CCC[N+]=5CCC4)cc1 [MitoTracker® Red, reference compound]
location of the stain in the mitochondria [4]: concentrated along the edges of the mitochondria
change of staining intensity with incubation time [5]: barely varied upon increasing incubation time
change of staining intensity with incubation time [6]: barely varied upon increasing incubation time
mitochondrial fluorescence of cells treated with FCCP [7]: highly attenuated mitochondrial fluorescence
effect of (R)-palmitoylcarnitine on fluorescence intensity [8]: only a slight increase of fluorescence
